This passage reports Ki and Km results from patent publication US5362915A, “Phenyl-substituted cycloalkenyl compounds useful as PDE IV inhibitors” (SmithKline Beecham Pharma GmbH, priority 1990, dated 1994).

SMILES strings stand for the structures.

In test [1] the target is c-AMP phosphodiesterase (erythrocytes). In words: Inhibition of Cyclic AMP Phosphodiesterase. Format: biochemical. Conditions: erythrocyte phosphodiesterase extract. The procedure:
The procedure used was that described by Arch, J. R. S. and Newsholme, E. A. in Biochem. J. 158, 603, (1976):
Erythrocytes were obtained from Na-citrate (16 mM; 0.1 ml/ml blood) anticoagulated blood by repeated centrifugation with removal of the buff coat and washing with an isotonic buffer (composition in mM: NaCl 13.7, KCl 4, CaCl2.2 H2 O 1.8, Na2 HPO4.12 H2 O 0.8, NaH2 PO4 0.2, MgSO4.7 H2 O 0.7, Hepes 3.4; pH 7.4).
The phosphodiesterase was extracted by mixing the erythrocytes with 4 volumes of 7 mM phosphate buffer, pH7.4, followed by sonification (3×10 sec; 100 W) and then centrifuging for 30 min at 4200×g.
All supernatants were diluted in the extraction medium and assayed for phosphodiesterase activity within 6 hours of preparation, using the radiochemical procedure described in the above mentioned reference.

The test system of test [2] is PDE Ib (Ca^2 +/calmodulin-stimulated). To be noted: porcine aorta; cited from earlier work.
Test [3] relates to PDE Ic (Ca^2 +/calmodulin-stimulated). Conditions: guinea-pig heart; cited from earlier work.
For another test, the system named is PDE III (cGMP-inhibited). Conditions: guinea-pig heart; cited from earlier work.
In test [4] the test system is PDE IV (Ro 20-1724-inhibited). To be noted: human monocyte; cited from earlier work.

In general, Ki refers to the dissociation constant of the complex between target and ligand, obtained from inhibition or displacement. Read a low Ki as tighter binding. `COc1ccc(C2=CC(=O)CC2)cc1OC` [Example 1, 1-(3,4-Dimethoxyphenyl)-cyclopent-1,2-ene-3-one]: the Ki in test [1] turned out to be 10.9 µM.
In test [1], `COc1ccc(C2=CC(=O)CC2)cc1OC1CCCC1` [Example 2, 1-(3-(Cyclopentyloxy-4-methoxy)-phenyl)-cyclopent-1,2-ene-3-one] registered an inhibition constant Ki of 1.1 µM.
Same read-out and setting: with `COc1ccc(C2=CC(=O)CCC2)cc1OC1CCCC1` [Example 3] the figure was 0.7 µM; with `COc1ccc(C2=CC(=O)CCC2)cc1OC` [Example 4, 1-(3,4-Dimethoxyphenyl)-cyclohex-1,2-ene-3-one], 3 µM.
Still for that read-out and setting: with `COc1ccc(C2CCCCC2)cc1OC1CCCC1` [Example 5, 1-Methoxy-2-cyclopentyloxy-4-cyclohexyl-benzene] the figure was 2.1 µM.
With `COc1ccc(C2CCCCC2)cc1OC` [Example 6, 1,2-Dimethoxy-4-cyclohexyl-benzene], in test [1], the Ki amounted to 14.1 µM.
For orientation: Km means the concentration of substrate that gives half-maximal velocity. On to `Nc1nc2c(ncn2[C@@H]2O[C@@H]3COP(=O)(O)O[C@H]3[C@H]2O)c(=O)[nH]1` [cGMP], for which the Km was 5 µM in test [2], 2 µM in test [3], 8 µM with PDE III (cGMP-inhibited) and 38 µM in test [4].
